# Results from US5464617A, “β-lactam compounds” (Hoffmann-La Roche Inc., priority 1994, dated 1995).
# Counter-ions that a name gives are not always drawn.
# System: Citrobacter freundii 1982
# Assay: MIC in vitro of a 1:4 combination of ceftriaxone with a compound of formula I (Test D)
# Assay type: cell-based
# Settings: Table 2; 1:4 combination of ceftriaxone with the compound
# Method: The minimum inhibitory concentration in vitro ([…]) of a 1:4 combination of ceftriaxone with a compound of formula I against Citrobacter freundii 1982 was measured and compiled in Table 2 hereinafter.
row,Structure (SMILES),MIC C. freundii 1982
1,"Cn1nnnc1SC1=C(C(=O)O)N2C(=O)[C@@H]3[C@H]2[C@H](C1)CN3C(=O)Nc1ccc(C(N)=O)cc1 [3(b), (1aS,3aR,6bR)-2-(4-Carbamoyl-phenylcarbamoyl)-5-(1-methyl-1H-tetrazol-5-ylsulphanyl)-1-oxo-1a,2,3,3a,4,6b-hexahydro-1H-2,6a-diazacyclobut[cd]indene-6-carboxylic acid sodium salt]",0.25 µg/mL
2,"CC(=O)OCC1=C(C(=O)O)N2C(=O)[C@@H]3[C@H]2[C@H](C1)CN3C(=O)Nc1ccc(O)cc1 [Example 25, (1aS,3aR,6bR)-5-Acetoxymethyl-2-(4-hydroxy-phenylcarbamoyl)-1-oxo-1a,2,3,3a,4,6b-hexahydro-1H-2,6a-diazacyclobut[cd]indene-6-carboxylic acid sodium salt]",0.25 µg/mL
3,"Cn1nnnc1SC1=C(C(=O)O)N2C(=O)[C@@H]3[C@H]2[C@H](C1)CN3C(=O)N[C@H]1CCNC1=O [3(c), (1aS,3aR,6bR)-2-[(S)-2-Oxo-pyrrolidin-3-ylcarbamoyl]-5-(1-methyl-1H-tetrazol-5-ylsulphanyl)-1-oxo-1a,2,3,3a,4,6b-hexahydro-1H-2,6a-diazacyclobut[cd]indene-6-carboxylic acid sodium salt]",0.25 µg/mL
4,"NC(=O)c1ccc(NC(=O)N2C[C@H]3CC(Sc4nnc(N)s4)=C(C(=O)O)N4C(=O)[C@@H]2[C@@H]34)cc1 [3(m), (1aS,3aR,6bR)-5-(5-Amino1,3,4-thiadiazol-2-ylsulphanyl)-2-(4-carbamoyl-amino-phenylcarbamoyl)-1-oxo-1a,2,3,3a,4,6b-hexahydro-1H-2,6a-diazacyclobut]cd]indene-6-carboxylic acid sodium salt]",0.25 µg/mL
5,"CS(=O)(=O)OC1=C(C(=O)O)N2C(=O)[C@@H]3[C@H]2[C@H](C1)CN3C(=O)N[C@H]1CCNC1=O [9(e), (1aS,3aR,6bR)-5-Methylsulphonyloxy-1-oxo-2-[(S)-2-oxo-pyrrolidin-3-ylcarbamoyl]-1a,2,3,3a,4,6b-hexahydro-1H-2,6a-diazacyclobut[cd]indene-6-carboxylicacid sodium salt]",0.25 µg/mL

# Now from value to molecule:
row,MIC C. freundii 1982,Structure (SMILES)
1,0.5 µg/mL,"C[n+]1ccc(SCC2=C(C(=O)[O-])N3C(=O)[C@@H]4[C@H]3[C@H](C2)CN4C(=O)Nc2ccc(C(N)=O)cc2)cc1 [Example 21, (1aS,3aR,6bR)-2-(4-Carbamoyl-phenylcarbamoyl)-5-(1-methylpyridin-1-yliosulphanylmethyl)-1-oxo-1a,2,3,3a,4,6b-hexahydro-1H-2,6a-diazacyclobut[cd]indene-6-carboxylate]"
2,1 µg/mL,O=C([O-])C1=C(C[n+]2ccccc2)C[C@@H]2CN(C(=O)Nc3ccc(O)cc3)[C@@H]3C(=O)N1[C@H]23 [23(a)]
3,2 µg/mL,"O=C(C[n+]1ccccc1)Nc1nnc(SC2=C(C(=O)[O-])N3C(=O)[C@@H]4[C@H]3[C@H](C2)CN4C(=O)Nc2ccc(O)cc2)s1 [Example 5, (1aS,3aR,6bR)-2-(4-Hydroxy-phenylcarbamoyl)-1-oxo-5-[5-(pyridin-1-ylioacetylamino)-1,3,4-thiadiazol-2-ylsulphanyl]-1a,2,3,3a,4,6b-hexahydro-1H-2,6a-diazacyclobut[cd]indene-6-carboxylic acid]"

# Same assay, conditions: Table 4; test D, 1:4 combination of ceftriaxone with the compound
row,MIC C. freundii 1982 (D),Structure (SMILES)
1,4 µg/mL,"Cn1nnnc1SCC1=C(C(=O)O)N2C(=O)[C@@H]3[C@H]2[C@H](C1)CN3S(=O)(=O)C(F)(F)F [19(f), (1aS,3aR,6bR)-5-(1-Methyl-1H-tetrazol-5-ylsulphanylmethyl)-1-oxo-2-trifluormethylsulphonyl-1a,2,3,3a,4,6b-hexahydro-1H-2,6a-diazacyclobut[cd]indene-6-carboxylic acid sodium salt]"
2,0.25 µg/mL,"COC(=O)CN1C[C@H]2CC(CSc3nnnn3C)=C(C(=O)O)N3C(=O)[C@@H]1[C@@H]23 [61(a), (1aS,3aR,6bR)-2-Methoxycarbonylmethyl-5-(1-methyl-1H-tetrazol-5-ylsulphanylmethyl)-1-oxo-1a,2,3,3a,4,6b-hexahydro-1H-2,6a-diazacyclobut[cd]indene-6-carboxylic acid]"
